Data from EP0751957B1, “PEPTIDE FRAGMENTS OF MICROBIAL STRESS PROTEINS AND PHARMACEUTICAL COMPOSITION MADE THEREOF FOR THE TREATMENT AND PREVENTION OF INFLAMMATORY DISEASES” (priority 1994, dated 2004).
Entries after “also recorded” stand apart in the source; their conditions may differ.

Columns and labels:
[1] = test system: Peptide-specific T cell lines; test: T cell proliferation assay, peptide-specific T cell lines from peptide-immunised rats; format: cell-based, Lewis rats; details: for CPM T Cell Line: in vitro peptide 10 µg/ml
Description: (§1) T cell proliferation assays: PLNC were cultured in triplicate in 200 µl flat bottom microtitre wells (Costar) at 2 x 10^5 cells per well with or without antigen. In initial experiments PLNC were tested for responsiveness to individual peptides at concentrations of 5 and 20 µg/ml, and Mt, hsp65 and PPD over a range of concentrations. Concanavalin A (2 µg/ml) was used as a positive control for T cell proliferation. Cultures were incubated for 96 h at 37°C in a humidified atmosphere of 5% CO2. Cultures were pulsed for the final 16 h with [^3H] TdR (Amersham, U.K., 1 uCi/well) and TdR uptake measured using a liquid scintillation β counter. Assays using T cell lines were performed as above using 2 x 10^4 line cells per well with irradiated (30 Gy) syngeneic accessory cells (either 3 x 10^5 splenocytes/well or 10^6 thymocytes/well). Results are expressed as mean counts per minute (cpm) of triplicate cultures. In experiments where responses to Ag were low, responses were considered significant if the stimulation index (S.I. = mean cpm with Ag - mean cpm without Ag) was greater than two and Student's t tests gave p < 0.01.
T cell lines: T cell lines with specificity for mycobacterial hsp65 or peptides were generated by bulk stimulation of either hsp65-PLNC or Mt-PLNC. PLNC were cultured at 5 x 10^6/ml in culture medium supplemented with 2% normal rat serum (NRS) in the presence of 10 µg/ml Ag. After three days viable cells were harvested using a ficoll-isopaque gradient and cultured for a further four days in culture medium + 5% FCS and 5% TCGF (Con A-activated rat spleen supernatant). Seven days after initial stimulation lines were restimulated with irradiated spleen accessory cells and 10 µg/ml Ag in culture medium + NRS. Lines were maintained ir. this seven day restimulation cycle. Short term epitope-specific T cell lines were also generated from rats immunised with synthetic peptides. Peptide-PLNC were cultured as above in the presence of 10 µg/ml peptide.
Bulk stimulation generated T cell lines to eight of the nine peptides tested. These eight lines were tested for specificity after four in vitro restimulations (Table II). All responded to the immunising peptide and, to some extent, to hsp65.
(§2) T cell responses by immunisation with hsp65 peptides. Rats were immunised with synthetic peptides containing individual hsp65 epitopes (100 µg peptide/DDA per rat). Ten days later PLNC were isolated and tested for responses to overlapping peptides (20 µg/ml). Peptide-specific T cell lines were generated by bulk in vitro stimulation of PLNC with immunising peptide. Lines were tested for responses to overlapping peptides (10 µg/ml). […] Results are expressed as mean cpm of triplicate cultures. All SEM were less than 20%.

[2] = test system: adjuvant arthritis; test: Adjuvant arthritis (AA) induced with Mt in IFA, clinical arthritis score; format: in vivo, Lewis rats
Description: (§3) Induction and clinical assessment of experimental arthritis: Arthritis was induced by a single intradermal injection in the base of the tail. AA was induced with 0.5 mg Mt suspended in 100 µl IFA. CP20961 arthritis was induced with 2 mg CP20961 in 100 µl light mineral oil (Sigma). Rats were examined daily for clinical signs of arthritis. Severity of arthritis was assessed by scoring each paw from zero to four based on degree of swelling, erythema and deformity of the joints. Thus the maximum possible arthritis score was 16.
(§4) Modulation of arthritis with hsp65 peptides and epitope-specific T cell lines: Synthetic peptides corresponding to eight T cell epitopes present in mycobacterial hsp65 were tested for protective effects on arthritis development. Rats were immunised with 100 µg of individual peptide seven days prior to arthritis induction. Peptides were immunised in each hind footpad in 10 mg/ml DDA (50 µl/pad). Control rats received only PBS/DDA. Epitope-specific T cell lines were also tested for protective activity by intravenous administration of lines at the time of arthritis induction. T cell lines were restimulated in vitro with irradiated spleen APC and specific peptide. Four days later T cell blasts were harvested by ficoll gradient, washed and applied to a second ficoll gradient to remove any contaminating APC. T cells were washed twice in wash medium and twice in PBS and finally suspended at 2.5x10^7/ml in PBS. Immediately prior to injection of Mt, 200 µl (i.e. 5x10^6) T cells were injected i.v. in the tail vein.
The effects of preimmunisation with synthetic peptides containing individual epitopes on the development of AA were analysed (Fig. 7). The eight peptides which primed for epitope specific T cells were tested. Rats were immunised with 100 µg of peptide 7 days prior to AA-induction with Mt.

[3] = test system: primed lymph node cells (PLNC); test: T cell proliferation assay, PLNC from peptide-immunised rats; format: cell-based, Lewis rats; details: in vitro peptide 20 µg/ml
Description: (§5) Immunisations with synthetic peptides and primed lymph node populations: Rats were immunised with 50 µg of synthetic peptide in PBS/DDA in each hind footpad (i.e. 50 µg/footpad, 100 µg/rat). Ten days later, draining popliteal lymph nodes were removed, disaggregated, washed three times and used as a source of primed lymph node cells (PLNC). In some experiments, PLNC were derived as pooled inguinal and popliteal lymph nodes from AA rats 35-42 days post Mt immunisation.
as §1
To determine whether immunisation of rats with synthetic peptides was effective at priming for T cell reactivity to hsp65 epitopes, in vitro proliferative responses following immunisation with 100 µg of peptide each containing individual T cell epitopes were examined. PLNC isolated ten days after immunisation were tested for response to the immunising peptide, overlapping peptides and to hsp65 (Table II). PLNC responses were observed after immunisation with seven of the nine peptides. Responses were not seen after immunisation with peptides 386-400 and 511-525.
as §2

[4] = test system: hsp65-PLNC; test: T cell proliferation assay, hsp65-PLNC; format: cell-based, Lewis rats; details: PLNC from hsp65-immunised rats; peptides 5 and 20 µg/ml
Description: Immunisations and primed lymph node populations: Rats were immunised with either Mt or hsp65. Mt was suspended at 5 mg/ml in IFA or DDA and 100 µl injected in each hind footpad (i.e. 500 µg/footpad, 1 mg/rat). Hsp65 (1 mg/ml in PBS) was mixed 1:1 with DDA and 100 µl injected (i.e. 50 µg/footpad, 100 µg/rat). Ten to 21 days later, draining popliteal lymph nodes were removed, disaggregated, washed three times and used as a source of primed lymph node cells (PLNC). In control experiments splenocytes and lymph nodes from unimmunised rats and PLNC from rats immunised with IFA or DDA/PBS alone were used.
as §1
Hsp65-PLNC were analysed for responsiveness to a panel of peptides covering the entire sequence of hsp65 (Fig. 3a). […] In terms of magnitude of response, three regions of the molecule (residues 176-190, 211-230 and 221-240) appeared to contain the "dominant" T cell epitopes, while regions 86-100. 251-270, 396-410 and 506-525 contained "subdominant" or minor epitopes.

[5] = test system: T cell; test: T cell proliferative responses in humans (initial testing); format: cell-based; details: some autoimmune disease patients
Text: Thus, already the rat-defined T cell epitopes themselves could be used for therapeutical intervention in some individuals (certain HLA types).

[6] = test system: PLNC from preimmunised rats; test: T cell proliferation assay, PLNC of peptide-preimmunised AA rats 42 days after Mt; format: cell-based, Lewis rats; details: rats preimmunised with the same peptide; peptide 20µg/ml
Description: as §5, §1
PLNC from preimmunised rats were tested for responsiveness to hsp65 epitopes 42 days after Mt administration (Fig. 8). […] Responses to peptide 176-190 containing the AA-associated epitope were found in all PLNC populations (and enhanced after 176-190 preimmunisation) with one exception.

[7] = test system: CP20961-induced arthritis; test: CP20961-induced arthritis, clinical arthritis score; format: in vivo, Lewis rats; details: 100 µg peptide in DDA 7 days prior to 2 mg CP20961 in 100 µl mineral oil i.d.
Description: as §3
as §4, with “T cells were washed twice in wash medium and twice in PBS and finally suspended at 2.5x10^7/ml in PBS. Immediately prior to injection of Mt, 200 µl (i.e. 5x10^6) T cells were injected i.v. in the tail vein.” left out

[8] = test system: T cell lines generated from hsp65-immunised rats; test: T cell proliferation assay, epitope-specific T cell lines generated from hsp65-immunised rats; format: cell-based, Lewis rats; details: Line H.52
Description: as §1, with “In experiments where responses to Ag were low, responses were considered significant if the stimulation index (S.I. = mean cpm with Ag - mean cpm without Ag) was greater than two and Student's t tests gave p < 0.01.” left out
T cell lines were generated by restimulation of hsp65-PLNC with individual synthetic peptides. For epitopes where responses had been detected to two overlapping peptides, the line was generated using the peptide that induced strongest proliferation of hsp65-PLNC (e.g. for epitope 216-225, peptide 211-225 was used). […]

[9] = 100 µg peptide in DDA, hind footpads, 7 days prior to AA induction with Mt

Substance | CPM T Cell Line ([1]; T cell line from 86-100-immunised PLNC) | protection against AA development after peptide preimmunisation [2, 9] | CPM PLNC ([3]; PLNC 10 days after immunisation with peptide 86-100 (100 µg/DDA), mean of triplicates) | hsp65-PLNC proliferative response to peptide [4] | T cell proliferative responses in autoimmune disease patients [5] | CPM T Cell Line ([1]; T cell line from 211-225-immunised PLNC) | PLNC response to the immunising peptide 42 days after Mt administration [6] | CPM PLNC ([3]; PLNC 10 days after immunisation with peptide 211-225 (100 µg/DDA)) | protection against CP20961-induced arthritis after peptide preimmunisation [7] | CPM T Cell Line ([1]; T cell line from 256-270-immunised PLNC) | response of the line generated against M.256-270 (line P.m52) ([1]; irradiated syngeneic spleen APC) | mean maximum arthritis score ([2]; 100 µg peptide in DDA, hind footpads, 7 days prior to AA induction with Mt, 24 rats in five experiments, maximum possible score 16) | protection against AA development after peptide preimmunisation ([2]; 100 µg peptide in DDA, hind footpads, 7 days prior to AA induction with Mt, listed as hsp65 256-270) | rats that developed clinical signs of arthritis ([2]; of the 24 rats preimmunised with peptide, signs milder than in control rats) | permanent joint deformities ([2]; preimmunised rats that developed AA) | CPM PLNC ([3]; PLNC 10 days after immunisation with peptide 256-270 (100 µg/DDA)) | level of proliferation relative to the rat peptide [8]
peptide 86-100: synthetic 15mer, sequence 86-100 of SEQ ID No.1 (mycobacterial hsp65) (DGTTTATVLAQALVR; UniProt P9WPE7 86-100, looked up, fragment) | 49422 cpm | moderate protection; also recorded: moderate effect | 57925 cpm | subdominant | capable of inducing T cell proliferative responses |  |  |  |  |  |  |  |  |  |  |  | 
peptide 211-225: synthetic 15mer, residues 211-225 of mycobacterial hsp65; control peptide in arthritis models |  | did not influence AA development |  |  |  | 121978 cpm | strong responses | 39765 cpm | did not |  |  |  |  |  |  |  | 
peptide 256-270: synthetic 15mer, sequence 256-270 of SEQ ID No.1 (mycobacterial hsp65) |  | striking protective effect; also recorded: strong protection; also recorded: clear protective effects |  |  | capable of inducing T cell proliferative responses |  | marginal PLNC responses |  | strongly protected | 69037 cpm | responded | 1.7 | Protection was observed | twelve | remarkably free of permanent deformities | 16423 cpm | five to ten fold higher
